Source: US20120149663A1, “BORONIC ACID COMPOSITIONS AND METHODS RELATED TO CANCER” (GEORGETOWN UNIVERSITY, priority 2009, published 2012)
Like-named read-outs stand apart in the source and are kept apart here.

How the values were obtained:
[1] = tested on: ER+, estrogen-dependent human breast cancer MCF-7 cell line; experiment: Cell growth assay (WST-1 assay), MCF-7; format: cell-based; conditions: for MCF-7 cell growth inhibition (in words): MCF-7, WST-1
Experimental: Results are the mean value of triplicate samples. […] Cell viability was finally determined by adding WST-1 reagent and measuring the optical absorbance at […] and 630 nm as described in “Materials and methods”. […] The IC50 for each cell line was calculated using graph pad prism. Data are expressed as mean (SEM) of triplicate samples. […] The IC50 for each cell line was calculated using graph pad prism. Data are expressed as mean (SEM) of triplicate sample. ER-Positive (MCF-7) human breast carcinoma cell line was used in this study. The human breast cell lines MCF-7 (HTB-22) were provided by the tissue culture core facility at Lombardi Comprehensive Cancer Center, Georgetown University Medical Center. […] Robert Clarke from the Georgetown University Medical Center. […] The effect of cis-4 and trans-4 or resveratrol on cell growth was determined by WST-1 assay. Briefly, cells were seeded into a 96-well plate at 3,500 cells per well in DMEM containing 10% FBS. After overnight incubation, cells were treated with the compounds (1-100 μM) for 48 h and 72 h at 37° C. Control cells were treated with an equal amount of DMSO. After the indicated incubation time, cell viability was measured by WST-1 assay according to the manufacturer's instructions (Roche). […] The water soluble tetrazolium salt of WST-1 is converted into orange formazan by dehydrogenase in the mitochondria of living cells. The formazan absorbance, which correlates to the number of living cells, was recorded at wavelengths of 450 nm and 630 nm using a microplate reader (Ultramark, Microplate Imaging System, Bio-Rad). The GI50 was calculated from the graph of the log of compound concentration versus the fraction of the surviving cells.

[2] = tested on: CL 10.3 cells (MCF-7 MDR, over-expresses the MDR gene); experiment: Cell growth assay (WST-1 assay), multidrug resistant CL 10.3; format: cell-based, human; conditions: for Activity in multidrug resistant cells (in words): CL 10.3 compared with MCF-7; for MDR GI50/non-MDR GI50: CL 10.3 versus MCF-7, 72 h; for GI50: CL 10.3 Breast (MDR), 72 h, read-out: Cell Survival (WST-1 assay, GI50, 72 h) CL 10.3; for P-glycoprotein substrate (in words): inferred from activity in MDR cell line CL 10.3
Experimental: IC50 value (the concentration yielding 50% growth inhibition) was extrapolated from the graph of the log of compound concentration versus the fraction of surviving cells. The 1050 for each cell line was calculated using graph pad prism. Data are expressed as mean (SEM) of triplicate sample. Results are mean value of triplicate samples.
ER-Positive (MCF-7) human breast carcinoma cell line was used in this study. The human breast cell lines MCF-7 (HTB-22) were provided by the tissue culture core facility at Lombardi Comprehensive Cancer Center, Georgetown University Medical Center. MCF-7^MDR (CL 10.3) cells were a gift from Dr. Robert Clarke from the Georgetown University Medical Center. MCF-7, and CL 10.3 cells were maintained in DMEM (Biofluids, Frederick, Md.) supplemented 10% heat inactivated fetal bovine serum (FBS), 2 mM L-glutamine, and 50 μg/mL each of antibiotics, namely penicillin, streptomycin, and neomycin at 37° C. in a humidified incubator containing 5% CO2.
(§1) The effect of cis-4 and trans-4 or resveratrol on cell growth was determined by WST-1 assay. Briefly, cells were seeded into a 96-well plate at 3,500 cells per well in DMEM containing 10% FBS. After overnight incubation, cells were treated with the compounds (1-100 μM) for 48 h and 72 h at 37° C. Control cells were treated with an equal amount of DMSO. After the indicated incubation time, cell viability was measured by WST-1 assay according to the manufacturer's instructions (Roche). Briefly, 20 μL of WST-1 solution was added in each well and incubated for 2-4 hours. The water soluble tetrazolium salt of WST-1 is converted into orange formazan by dehydrogenase in the mitochondria of living cells. The formazan absorbance, which correlates to the number of living cells, was recorded at wavelengths of 450 nm and 630 nm using a microplate reader (Ultramark, Microplate Imaging System, Bio-Rad). The GI50 was calculated from the graph of the log of compound concentration versus the fraction of the surviving cells.

MCF-7 cells [3] = experiment: Combination with flavopiridol, WST-1 cell viability; format: cell-based, human; conditions: for Sensitization to flavopiridol (in words): MCF-7; for GI50: Homo sapiens, MCF7
Experimental: as §1, with “A Wst-1 assay was performed to measure the cell viability as mentioned in the methods. GI50 are the average of triplicate samples and the experiment was repeated thrice with identical results. The effect” for “The effect”, “instructions (Roche). […] The water” for “instructions (Roche). Briefly, 20 μL of WST-1 solution was added in each well and incubated for 2-4 hours. The water”

[4] = tested on: E2-mediated MCF-7 cell growth; experiment: DNA content in estrogen mediated MCF-7 cell growth; format: cell-based, human; conditions: E2 10^−9M constant
Experimental: After 5 days incubation, the DNA content of the treated cells was measured using a DNA fluorescence kit (Bio Rad #170-2480). Results are shown as the mean of triplicate samples±SD. The experiment was repeated twice with identical results. […] Cells were then seeded in 24 well plates at 10000 cells per well in 1 ml of estrogen depleted media. […] Cells were incubated at 37° C. for an additional 4 days. Media were removed and cells were frozen at −78° C. overnight and the DNA content in each well was measured according to the manufacturer's protocol (DNA Quantification Kit, Bi0-Rad). Results are represented as mean of triplicate sample and repeated the experiment with identical results.

MCF-7 cells [5] = experiment: Cell cycle analysis by flow cytometry (propidium iodide); format: cell-based, human; conditions: MCF-7, 30 μM, 16, 24, 48 h
Experimental: FIGS. 10A and 10B show the effect of compounds on cell cycle distribution in MCF-7 breast cancer cell lines. A. […] B. Percentage of DNA distribution of trans-4 in G1 phase was presented in a bar graph. Results are represented as a mean of triplicate samples. The experiment was repeated thrice with identical results. The effect of cis-4, trans-4 or resveratrol on cell cycle progression was analyzed by flow cytometry. Cells were seeded in 6-well plates and treated with 30 μM of compound 1 or 2 at different time intervals (16, 24, 48 h). Cells were trypsinized, centrifuged at 2000 rpm and cell pellets were collected. Pellets were washed with 1×PBS, permeabilized with 70% (v/v) ethanol, resuspended in 1 ml of PBS containing 1 mg/ml RNase and […] propidium iodide, incubated in the dark for 30 min at room temperature, and analysed by a FACSort Flow Cytometer (Becton Dickinson, San jose, CA). The cell cycle distribution was evaluated on DNA plots using the Modfit software (Verity softwarehouse, Topsham, Me.).

MCF-7 cells [6] = conditions: MCF-7, 300 μM, Clin Cancer Res 2002; cited from earlier work
[7] = tested on: cdk4, cdk2, cyclin E, cyclin D1 and pRb in MCF-7 cells; experiment: Western blot of G1 cell cycle proteins; format: cell-based, human; conditions: MCF-7, 24 h and 48 h, immunoblot
Experimental: MCF-7 cells were treated with the indicated concentrations of compound 2 for 24 hours and 48 hours and cell lysates were analyzed by immunoblotting. Protein expression of positive regulators such as cyclin D1, Cdk4, cyclinE, Cdk2 and phospho-Rb were detected by their specific antibodies. Human β-actin was analyzed as a control of gel loading. Twenty-micrograms of lysate was used for each experimental condition.
Western blotting was performed as previously published (J Biol Chem 2004, 279, 38903-38911). In brief, cell pellets were collected at the indicated times after treatment with compounds, suspended in 100 μl, of lysis buffer (50 mM Tris-HCl, 150 mM NaCl, 1 mM EGTA, 1 mM EDTA, 20 mM NaF, […], 0.5% NP-40, 1% Triton X-100, 1 mM PMSF, 5 μg/ml aprotinin, 5 μg/ml leupeptin), vortexed twice and incubated in an ice bath for 30 min Lysates were cleared by centrifugation at 12000 rpm for 15 min at 4° C. and protein was estimated by detergent compatible BCA protein assay kit (Pierce). Equivalent amounts of total proteins were resolved by SDS-PAGE (10%) and transferred to PVDF membranes. Membranes were blocked by 5% non-fat powdered milk in TBST overnight. […]

[8] = Stability compared with resveratrol; format: physicochemical
[9] = MCF-7, 48 h, read-out: Cell Survival (WST-1 assay, GI50) 48 hours
[10] = MCF-7, 72 h, read-out: Cell Survival (WST-1 assay, GI50) 72 hours

CC(=O)O[C@H]1C(=O)[C@@]2(C)[C@H]([C@H](OC(=O)c3ccccc3)[C@]3(O)C[C@H](OC(=O)[C@H](O)[C@@H](NC(=O)c4ccccc4)c4ccccc4)C(C)=C1C3(C)C)[C@]1(OC(C)=O)CO[C@@H]1C[C@@H]2O [Paclitaxel, reference compound]
MCF-7 cell growth inhibition (in words) [1]: strongly inhibits MCF-7 cell growth
Activity in multidrug resistant cells (in words) [2]: has no effect on CL 10.3 cells
MDR GI50/non-MDR GI50 [2]: >25,000
GI50 ([2]; Homo sapiens, MCF7): > 50 µM

Oc1ccc(C=Cc2cc(O)cc(O)c2)cc1 [Resveratrol, reference compound]
Sensitization to flavopiridol (in words) (MCF-7 cells [3]): does not sensitize the MCF-7 cells incubated with flavopiridol
Effect on E2-mediated MCF-7 cell growth (in words) [4]: antagonizes E2-mediated MCF-7 cell growth
Effect on cell cycle distribution (in words) (MCF-7 cells [5]): works at the G2/M1 phase
Cell cycle arrest by resveratrol in previous studies (in words) (MCF-7 cells [6]): S-phase cell cycle arrest

CN1CC[C@H](c2c(O)cc(O)c3c(=O)cc(-c4ccccc4Cl)oc23)[C@H](O)C1 [flavopiridol, reference compound]
GI50 (MCF-7 cells [3]; MCF-7, 10 μM trans-4 for 24 hours then flavopiridol 48 hours, read-out: GI50, combination of trans-4 with flavopiridol): 0.018 µM
GI50 (MCF-7 cells [3]; MCF-7, flavopiridol alone, 48 h, read-out: GI50, flavopiridol only): 0.3 µM

COc1ccc(/C=C/c2cc(OC)c(OC)c(OC)c2)cc1B(O)O [trans-4, 2-Methoxy-5-[(E)-2-(3,4,5-trimethoxyphenyl)vinyl]boronic acid]
Sensitization to flavopiridol (in words) (MCF-7 cells [3]): modulates the flavopiridol mediated cell viability
Fold increase in growth inhibition compared with trans-4 (MCF-7 cells [3]; MCF-7, opposite administration: 100 nM flavopiridol 24 hours then trans-4): 7 fold
Fold increase of flavopiridol mediated growth inhibition compared with flavopiridol alone (MCF-7 cells [3]; MCF-7, trans-4 then flavopiridol): 16.6 fold
Effect on E2-mediated MCF-7 cell growth (in words) [4]: does not have any effect on E2-induced cell growth
GI50 [1, 9]: 36.6 µM
GI50 [1, 10]: 31.1 ± 0.05 µM
Activity relative to Resveratrol ([1]; breast cancer): 3 fold
GI50 [2]: 49.09 ± 0.001 µM
Activity in multidrug resistant cells (in words) [2]: equipotent in CL 10.3 and MCF-7 cells
Activity in multidrug resistant cells (in words) ([2]; listed as Compound 2): can work on multidrug resistant cell lines
MDR GI50/non-MDR GI50 [2]: 1.57
P-glycoprotein substrate (in words) [2]: likely not a substrate for P-glycoprotein
P-glycoprotein substrate (in words) ([2]; listed as YK-5-104): not a substrate for p-glycoprotein
Expression level of G1 cell cycle proteins (in words) ([7]; listed as YK-5-104): decreases the pRb levels
Expression level of G1 cell cycle proteins (in words) ([7]; listed as compound 2): decreases the expression level of cdk4, cdk2, cyclin E, cyclin D1 and pRb
Stability compared with Resveratrol (in words) [8]: more stable than Resveratrol

[(Z)-2-(3,5-dimethoxyphenyl)vinyl]phenylboronic Acid [cis-4]
GI50 [1, 9]: > 100 µM
GI50 [1, 10]: > 100 µM
MCF-7 cell growth inhibition (in words) [1]: does not show any growth inhibition at 100 μM
